Test results as given in ChEMBL document CHEMBL4725392, “Orally Bioavailable Small-Molecule CD73 Inhibitor (OP-5244) Reverses Immunosuppression through Blockade of Adenosine Production” (J Med Chem, 2020).
Calls of active or inactive are those of the source. The rule behind the calls is not given here.

What was measured:
[1] = tested on: EMT6; assay: Antitumor activity against mouse EMT6 cells implanted in BALB/c mouse assessed as decrease in ADO/AMP ratio at 15 mg/kg, sc and measured on day 13 relative to control; type: functional; set-up: scale not given: the % may be the effect or the level left; conditions: time 13 day
[2] = tested on: E.G7-OVA; assay: Antitumour activity against mouse E.G7-OVA cells implanted in C57BL/6 mouse assessed as increase in CD8+/Treg ratio at 150 mg/kg, po BID for 16 days; type: functional, organism-based; conditions: time 16.0 day
[3] = Volume of distribution at steady state in cynomolgus monkey at 0.2 mg/kg, iv; type: ADME, organism-based, Macaca fascicularis; conditions: in vivo, read-out: Vdss
[4] = Volume of distribution at steady state in rat at 0.2 mg/kg, iv; type: ADME, organism-based; conditions: in vivo, read-out: Vdss
[5] = AUC in dog at 0.2 mg/kg, iv; type: ADME, organism-based, Canis lupus familiaris; set-up: dose 0.2 mg/kg; conditions: in vivo
[6] = AUC in rat at 0.2 mg/kg, iv; type: ADME, organism-based; set-up: dose 0.2 mg/kg; conditions: in vivo
[7] = Terminal half life in rat at 0.2 mg/kg, iv; type: ADME, organism-based; conditions: in vivo, read-out: beta t1/2 (converted)
[8] = Volume of distribution at steady state in dog at 0.2 mg/kg, iv; type: ADME, organism-based, Canis lupus familiaris; conditions: in vivo, read-out: Vdss
[9] = Clearance in rat at 0.2 mg/kg, iv; type: ADME, organism-based; conditions: in vivo
[10] = target: T1, 5'-nucleotidase (Homo sapiens, UniProt P21589); assay: Inhibition of CD73 in CD3/CD28/CD2 activated human CD8+ T-cells assessed as increase in TNFalpha protein expression at 4.1 to 1000 nM preincubated for 15 mins followed by AMP addition and measured after 96 hr by ELISA; type: tissue-based; conditions: CD8-positive T cell, dose nM 4.1-1000, time 15.0 min
T1 sequence (P21589 whole entry): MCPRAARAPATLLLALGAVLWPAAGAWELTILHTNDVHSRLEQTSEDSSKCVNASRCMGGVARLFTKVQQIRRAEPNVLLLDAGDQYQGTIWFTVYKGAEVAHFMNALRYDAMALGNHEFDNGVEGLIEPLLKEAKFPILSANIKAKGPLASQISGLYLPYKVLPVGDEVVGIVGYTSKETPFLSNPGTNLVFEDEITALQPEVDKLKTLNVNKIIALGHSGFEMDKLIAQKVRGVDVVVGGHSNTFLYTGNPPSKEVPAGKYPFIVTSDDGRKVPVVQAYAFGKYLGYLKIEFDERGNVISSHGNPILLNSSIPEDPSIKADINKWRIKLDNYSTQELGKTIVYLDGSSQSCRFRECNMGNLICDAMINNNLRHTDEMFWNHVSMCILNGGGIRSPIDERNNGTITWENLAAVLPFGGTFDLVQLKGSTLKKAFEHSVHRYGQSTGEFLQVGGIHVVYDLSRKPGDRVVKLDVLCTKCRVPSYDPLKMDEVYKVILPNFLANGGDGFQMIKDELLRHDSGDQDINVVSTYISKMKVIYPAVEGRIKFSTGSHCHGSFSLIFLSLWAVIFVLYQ

[11] = target: T1, 5'-nucleotidase; assay: Inhibition of human C-terminal His6-tagged CD73 expressed in CHO cells preincubated for 15 mins followed by AMP addition and measured after 10 mins by malachite green reagent based assay; type: cell-based
[12] = tested on: E.G7-OVA; assay: Antitumour activity against mouse E.G7-OVA cells implanted in C57BL/6 mouse assessed as increase in percentage of CD8+ T cells in total CD45+ leukocytes at 150 mg/kg, po BID for 16 days; type: functional, organism-based; conditions: time 16.0 day
[13] = target: T1, 5'-nucleotidase; assay: Inhibition of CD73 in human CD8+ T-cells assessed as reduction in AMP-induced ADO expression preincubated for 15 mins followed by AMP addition and measured after 1 hr by LC-MS/MS analysis relative to control; type: tissue-based; conditions: CD8-positive T cell
[14] = target: T2, 5'-nucleotidase (Mus musculus) (UniProt Q61503); assay: Inhibition of CD73 in mouse EMT6 cells assessed as reduction in AMP-induced ADO expression preincubated for 15 mins followed by AMP addition and measured after 1 hr by LC-MS/MS analysis relative to control; type: cell-based
T2 sequence (whole entry): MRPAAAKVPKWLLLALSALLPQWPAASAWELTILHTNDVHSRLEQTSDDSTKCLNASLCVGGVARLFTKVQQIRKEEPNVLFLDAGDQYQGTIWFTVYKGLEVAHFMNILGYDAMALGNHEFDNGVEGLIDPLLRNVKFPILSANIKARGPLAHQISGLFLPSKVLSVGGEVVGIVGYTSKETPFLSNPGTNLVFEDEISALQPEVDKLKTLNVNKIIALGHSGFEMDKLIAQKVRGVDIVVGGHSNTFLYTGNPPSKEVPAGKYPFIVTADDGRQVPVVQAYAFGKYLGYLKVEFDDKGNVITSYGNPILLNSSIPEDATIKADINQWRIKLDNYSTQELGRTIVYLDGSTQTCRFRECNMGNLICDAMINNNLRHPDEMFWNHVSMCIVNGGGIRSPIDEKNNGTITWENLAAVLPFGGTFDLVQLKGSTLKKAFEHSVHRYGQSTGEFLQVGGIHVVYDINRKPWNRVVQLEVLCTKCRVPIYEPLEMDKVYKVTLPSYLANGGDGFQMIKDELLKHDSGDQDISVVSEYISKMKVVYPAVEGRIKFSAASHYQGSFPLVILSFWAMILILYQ

[15] = target: T1, 5'-nucleotidase; assay: Inhibition of CD73 in CD3/CD28/CD2 activated human CD8+ T-cells assessed as increase in IFNgamma protein expression at 4.1 to 1000 nM preincubated for 15 mins followed by AMP addition and measured after 96 hr by ELISA; type: tissue-based; conditions: CD8-positive T cell, dose nM 4.1-1000, time 15.0 min
[16] = AUC in cynomolgus monkey at 10 mg/kg, po; type: ADME, organism-based, Macaca fascicularis; set-up: dose 10 mg/kg; conditions: in vivo
[17] = tested on: EMT6; assay: Antitumor activity against mouse EMT6 cells implanted in BALB/c mouse assessed as tumour growth inhibition at 15 mg/kg, sc and measured on day 13; type: functional, organism-based; conditions: time 13.0 day
[18] = AUC infinity in mouse at 200 mg/kg, po; type: ADME, organism-based; set-up: route oral, time infinity, dose 200 mg/kg; conditions: in vivo
[19] = target: T1, 5'-nucleotidase; assay: Inhibition of CD73 in human NCI-H1568 cells assessed as reduction in AMP-induced ADO expression preincubated for 15 mins followed by AMP addition and measured after 1 hr by LC-MS/MS analysis relative to control; type: cell-based
[20] = target: T3, Cytochrome P450 2C8 (Homo sapiens, UniProt P10632); assay: Inhibition of CYP2C8 (unknown origin); type: ADME
T3 sequence (P10632 whole entry): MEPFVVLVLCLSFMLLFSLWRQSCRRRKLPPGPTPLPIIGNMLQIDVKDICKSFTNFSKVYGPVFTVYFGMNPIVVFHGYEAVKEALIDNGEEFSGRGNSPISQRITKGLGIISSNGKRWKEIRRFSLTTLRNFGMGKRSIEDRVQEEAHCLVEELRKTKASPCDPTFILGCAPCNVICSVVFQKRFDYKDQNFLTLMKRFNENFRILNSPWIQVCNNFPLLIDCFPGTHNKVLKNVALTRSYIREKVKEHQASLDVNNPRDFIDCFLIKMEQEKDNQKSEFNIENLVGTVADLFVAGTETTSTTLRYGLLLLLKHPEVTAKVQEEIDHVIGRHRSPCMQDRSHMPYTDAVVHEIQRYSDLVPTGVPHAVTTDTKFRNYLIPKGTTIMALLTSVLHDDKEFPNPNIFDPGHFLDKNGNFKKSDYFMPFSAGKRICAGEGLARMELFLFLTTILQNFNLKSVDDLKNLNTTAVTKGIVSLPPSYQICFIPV

[21] = target: Cytochrome P450 3A4 (Homo sapiens, UniProt P08684); assay: Inhibition of CYP3A4 (unknown origin); type: ADME
Cytochrome P450 3A4, sequence (P08684 whole entry): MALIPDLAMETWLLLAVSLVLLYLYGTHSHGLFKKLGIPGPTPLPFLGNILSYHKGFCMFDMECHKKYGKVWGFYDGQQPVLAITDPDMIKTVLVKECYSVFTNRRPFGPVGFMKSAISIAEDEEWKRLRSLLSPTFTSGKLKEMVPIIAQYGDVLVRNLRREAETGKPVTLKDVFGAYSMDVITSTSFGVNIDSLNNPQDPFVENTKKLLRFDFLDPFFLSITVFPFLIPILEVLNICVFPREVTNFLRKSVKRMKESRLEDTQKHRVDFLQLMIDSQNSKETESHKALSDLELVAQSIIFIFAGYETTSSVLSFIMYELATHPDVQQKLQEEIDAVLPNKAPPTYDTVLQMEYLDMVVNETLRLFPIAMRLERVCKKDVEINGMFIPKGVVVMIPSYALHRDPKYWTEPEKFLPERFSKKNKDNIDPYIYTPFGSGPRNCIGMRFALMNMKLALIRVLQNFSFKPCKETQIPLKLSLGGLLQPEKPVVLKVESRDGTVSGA

[22] = Terminal half life in dog at 0.2 mg/kg, iv; type: ADME, organism-based, Canis lupus familiaris; conditions: in vivo, read-out: beta t1/2 (converted)
[23] = Cmax in rat at 10 mg/kg, po; type: ADME, organism-based; set-up: route oral, dose 10 mg/kg; conditions: in vivo
[24] = target: T1, 5'-nucleotidase; assay: Inhibition of CD73 in human CD8+ T-cells assessed as reduction in AMP-induced ADO expression preincubated for 15 mins followed by AMP addition and measured after 1 hr by LC-MS/MS analysis; type: tissue-based, CD8-positive T cell
[25] = target: T2, 5'-nucleotidase (Mus musculus); assay: Inhibition of CD73 in AMP-induced mouse E.G7-OVA cells at 10 to 100 nM incubated for 60 mins by Wachstein-Meisel lead phosphate method; type: cell-based; conditions: dose nM 10-100, time 60.0 min
[26] = target: T1, 5'-nucleotidase; assay: Inhibition of CD73 in CD3/CD28/CD2 activated human CD8+ T-cells assessed as increase in T cell proliferation at 4.1 to 1000 nM preincubated for 15 mins followed by AMP addition and measured after 96 hr by flow cytometric analysis; type: tissue-based; conditions: CD8-positive T cell, dose nM 4.1-1000, time 15.0 min
[27] = AUC in cynomolgus monkey at 0.2 mg/kg, iv; type: ADME, organism-based, Macaca fascicularis; set-up: dose 0.2 mg/kg; conditions: in vivo
[28] = target: T2, 5'-nucleotidase (Mus musculus); assay: Inhibition of CD73 in AMP-induced mouse E.G7-OVA cells incubated for 60 mins by Wachstein-Meisel lead phosphate method; type: cell-based; conditions: dose nM 10-100, time 60.0 min
[29] = Terminal half life in cynomolgus monkey at 0.2 mg/kg, iv; type: ADME, organism-based, Macaca fascicularis; conditions: in vivo, read-out: beta t1/2 (converted)
[30] = Cmax in cynomolgus monkey at 10 mg/kg, po; type: ADME, organism-based, Macaca fascicularis; set-up: route oral, dose 10 mg/kg; conditions: in vivo
[31] = Cmax in mouse at 200 mg/kg, po; type: ADME, organism-based; set-up: route oral, dose 200 mg/kg; conditions: in vivo
[32] = tested on: EMT6; assay: Antitumor activity against mouse EMT6 cells implanted in BALB/c mouse assessed as decrease in ADO expression at 15 mg/kg, sc and measured on day 13 relative to control; type: functional; set-up: scale not given: the % may be the effect or the level left; conditions: time 13 day
[33] = target: T1, 5'-nucleotidase; assay: Inhibition of CD73 in human NCI-H1568 cells assessed as reduction in AMP-induced ADO expression preincubated for 15 mins followed by AMP addition and measured after 1 hr by LC-MS/MS analysis; type: cell-based
[34] = AUC in dog at 10 mg/kg, po; type: ADME, organism-based, Canis lupus familiaris; set-up: dose 10 mg/kg; conditions: in vivo
[35] = AUC in rat at 10 mg/kg, po; type: ADME, organism-based; set-up: dose 10 mg/kg; conditions: in vivo
[36] = Clearance in dog at 0.2 mg/kg, iv; type: ADME, organism-based, Canis lupus familiaris; conditions: in vivo
[37] = Terminal half life in mouse at 200 mg/kg, po; type: ADME, organism-based; conditions: in vivo, read-out: beta t1/2 (converted)
[38] = Cmax in dog at 10 mg/kg, po; type: ADME, organism-based, Canis lupus familiaris; set-up: route oral, dose 10 mg/kg; conditions: in vivo
[39] = target: T4, 5'-nucleotidase (Mus musculus, UniProt Q61503); assay: Inhibition of CD73 in mouse EMT6 cells assessed as reduction in AMP-induced ADO expression preincubated for 15 mins followed by AMP addition and measured after 1 hr by LC-MS/MS analysis; type: cell-based
T4 sequence (Q61503 whole entry): T2 sequence (whole entry)

[40] = Clearance in cynomolgus monkey at 0.2 mg/kg, iv; type: ADME, organism-based, Macaca fascicularis; conditions: in vivo
[41] = target: Cytochrome P450 2C9 (Homo sapiens, UniProt P11712); assay: Inhibition of CYP2C9 (unknown origin); type: ADME
Cytochrome P450 2C9, sequence (P11712 whole entry): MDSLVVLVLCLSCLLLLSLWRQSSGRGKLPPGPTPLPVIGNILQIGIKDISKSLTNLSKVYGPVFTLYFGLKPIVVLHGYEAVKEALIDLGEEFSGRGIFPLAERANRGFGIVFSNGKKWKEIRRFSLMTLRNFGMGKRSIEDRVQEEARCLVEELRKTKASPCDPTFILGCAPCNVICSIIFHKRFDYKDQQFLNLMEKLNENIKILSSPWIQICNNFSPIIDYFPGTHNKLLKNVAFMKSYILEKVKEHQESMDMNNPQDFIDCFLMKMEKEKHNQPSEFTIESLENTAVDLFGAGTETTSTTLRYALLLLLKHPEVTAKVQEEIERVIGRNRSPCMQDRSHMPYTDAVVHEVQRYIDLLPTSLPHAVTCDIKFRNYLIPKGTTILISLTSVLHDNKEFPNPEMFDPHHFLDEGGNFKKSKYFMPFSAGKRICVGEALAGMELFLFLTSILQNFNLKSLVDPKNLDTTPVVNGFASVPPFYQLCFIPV

COC[C@](CO)(OC[C@H]1O[C@@H](n2ncc3c(NC4CCCC4)nc(Cl)nc32)[C@H](O)[C@@H]1O)P(=O)(O)O
Activity [1]: 95%
Activity [2]: Active
Vd [3]: 0.1 L/kg
Vd [4]: 0.22 L/kg
AUC [5]: 0.31 µM·h
AUC [6]: 2.11 µM·h
half-life [7]: 510 min
Vd [8]: 0.29 L/kg
clearance [9]: 3 mL/min/kg
inhibition [10]: Active
IC50 [11]: 0.25 nM
Activity [12]: Active
inhibition [13]: 100%
inhibition [14]: 100%
inhibition [15]: Active
AUC [16]: 14.2 µM·h
Activity [17]: Active
AUC(0-inf) [18]: 45.1 µM·h
inhibition [19]: 100%
IC50 [20]: > 20 µM
IC50 [21]: > 20 µM
half-life [22]: 49.2 min
Cmax [23]: 820 nM
EC50 [24]: 0.22 nM
inhibition [25]: Active
inhibition [26]: Active
AUC [27]: 7.72 µM·h
inhibition [28]: Dose-dependent effect
half-life [29]: 276 min
Cmax [30]: 1720 nM
Cmax [31]: 42.2 µM
Activity [32]: 100%
EC50 [33]: 0.79 nM
AUC [34]: 1.75 µM·h
AUC [35]: 1.96 µM·h
clearance [36]: 20.3 mL/min/kg
half-life [37]: 198 min
Cmax [38]: 1250 nM
EC50 [39]: 14 nM
clearance [40]: 0.833 mL/min/kg
IC50 [41]: > 20 µM
